One block for each molecule: values may come before it.
Tested on: NCI-H1876 complex spheroid growth, % test/control
Experiment: Anticancer human tumor NCI-H1876 cell line growth inhibition [Asc];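 note: compound exposure lasted 7 days starting three days after seeding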;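 for viability, T/C: 100% = DMSO vehicle control wells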
Conditions: for IC50: curve of first compound; for viability, T/C: stronger effect = lower value
Method in brief: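 Complex spheroids combining tumor cells with HUVEC endothelial cells and human MSCs, at 37 degrees C, 5% CO2; agents tested alone or combined, half-log dilutions from at or near clinical Cmax, or 10 microM if Cmax unknown.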

[1] = second compound 0.0316 µM, first compound 0.0316 µM
[2] = second compound 0.0316 µM, first compound 0.1 µM
[3] = second compound 0.0316 µM, first compound 0.316 µM
[4] = second compound 0.0316 µM, first compound 1 µM
[5] = second compound 0.1 µM, first compound 0.0316 µM
[6] = second compound 0.1 µM, first compound 0.1 µM
[7] = second compound 0.1 µM, first compound 0.316 µM
[8] = second compound 0.1 µM, first compound 1 µM
[9] = second compound 0.316 µM, first compound 0.0316 µM
[10] = second compound 0.316 µM, first compound 0.1 µM
[11] = second compound 0.316 µM, first compound 0.316 µM
[12] = second compound 0.316 µM, first compound 1 µM
[13] = second compound 1 µM, first compound 0.0316 µM
[14] = second compound 1 µM, first compound 0.1 µM
[15] = second compound 1 µM, first compound 0.316 µM
[16] = second compound 1 µM, first compound 1 µM
[17] = second compound 3.16 µM, first compound 0.0316 µM
[18] = second compound 3.16 µM, first compound 0.1 µM
[19] = second compound 3.16 µM, first compound 0.316 µM
[20] = second compound 3.16 µM, first compound 1 µM
[21] = second compound 10 µM, first compound 0.0316 µM
[22] = second compound 10 µM, first compound 0.1 µM
[23] = second compound 10 µM, first compound 0.316 µM
[24] = second compound 10 µM, first compound 1 µM

- IC50 (second compound 0.0316 µM): > 1 µM
- IC50 (second compound 0.1 µM): > 1 µM
- IC50 (second compound 0.316 µM): > 1 µM
- IC50 (second compound 1 µM): > 1 µM
- IC50 (second compound 3.16 µM): > 1 µM
- IC50 (second compound 10 µM): > 1 µM
SMILES: O=C(c1ccc(F)c(F)c1Nc1ccc(I)cc1F)N1CC(O)([C@@H]2CCCCN2)C1 + Cc1c(S(C)(=O)=O)c(-c2cc(F)cc(N3CCN(c4ccc(NS(=O)(=O)c5ccc(NC(CCN6CCC(C(=O)OCCCP(=O)(O)O)CC6)CSc6ccccc6)c(S(=O)(=O)C(F)(F)F)c5)cc4)CC3)c2)c(-c2ccc(Cl)cc2)n1C(C)C
- viability, T/C (second compound 0.0316 µM, first compound 0.00316 µM): 102%
- viability, T/C (second compound 0.0316 µM, first compound 0.01 µM): 98.9%
- viability, T/C [1]: 108%
- viability, T/C [2]: 92.3%
- viability, T/C [3]: 85.3%
- viability, T/C [4]: 71.7%
- viability, T/C (second compound 0.1 µM, first compound 0.00316 µM): 95.4%
- viability, T/C (second compound 0.1 µM, first compound 0.01 µM): 97.5%
- viability, T/C [5]: 94.6%
- viability, T/C [6]: 97.6%
- viability, T/C [7]: 86.9%
- viability, T/C [8]: 81%
- viability, T/C (second compound 0.316 µM, first compound 0.00316 µM): 96.5%
- viability, T/C (second compound 0.316 µM, first compound 0.01 µM): 102%
- viability, T/C [9]: 89.5%
- viability, T/C [10]: 102%
- viability, T/C [11]: 84.2%
- viability, T/C [12]: 78.4%
- viability, T/C (second compound 1 µM, first compound 0.00316 µM): 101%
- viability, T/C (second compound 1 µM, first compound 0.01 µM): 102%
- viability, T/C [13]: 93.9%
- viability, T/C [14]: 92.1%
- viability, T/C [15]: 92%
- viability, T/C [16]: 77.1%
- viability, T/C (second compound 3.16 µM, first compound 0.00316 µM): 109%
- viability, T/C (second compound 3.16 µM, first compound 0.01 µM): 98.6%
- viability, T/C [17]: 91%
- viability, T/C [18]: 85.8%
- viability, T/C [19]: 94.2%
- viability, T/C [20]: 74.9%
- viability, T/C (second compound 10 µM, first compound 0.00316 µM): 103%
- viability, T/C (second compound 10 µM, first compound 0.01 µM): 92.2%
- viability, T/C [21]: 92.5%
- viability, T/C [22]: 102%
- viability, T/C [23]: 93.5%
- viability, T/C [24]: 79.5%

- IC50 (second compound 0.0316 µM): > 10 µM
- IC50 (second compound 0.1 µM): > 10 µM
- IC50 (second compound 0.316 µM): > 10 µM
- IC50 (second compound 1 µM): 9.96 µM
- IC50 (second compound 3.16 µM): 8.47 µM
- IC50 (second compound 10 µM): 7.79 µM
SMILES: O=C(c1cc(Cc2n[nH]c(=O)c3ccccc23)ccc1F)N1CCN(C(=O)C2CC2)CC1 + Cc1c(S(C)(=O)=O)c(-c2cc(F)cc(N3CCN(c4ccc(NS(=O)(=O)c5ccc(NC(CCN6CCC(C(=O)OCCCP(=O)(O)O)CC6)CSc6ccccc6)c(S(=O)(=O)C(F)(F)F)c5)cc4)CC3)c2)c(-c2ccc(Cl)cc2)n1C(C)C
- viability, T/C [1]: 99.6%
- viability, T/C [2]: 99.1%
- viability, T/C [3]: 92.8%
- viability, T/C [4]: 101%
- viability, T/C (second compound 0.0316 µM, first compound 3.16 µM): 97.2%
- viability, T/C (second compound 0.0316 µM, first compound 10 µM): 74%
- viability, T/C [5]: 100%
- viability, T/C [6]: 90.9%
- viability, T/C [7]: 98.2%
- viability, T/C [8]: 96.2%
- viability, T/C (second compound 0.1 µM, first compound 3.16 µM): 95.9%
- viability, T/C (second compound 0.1 µM, first compound 10 µM): 73.6%
- viability, T/C [9]: 90.2%
- viability, T/C [10]: 96.7%
- viability, T/C [11]: 93.5%
- viability, T/C [12]: 97.9%
- viability, T/C (second compound 0.316 µM, first compound 3.16 µM): 96%
- viability, T/C (second compound 0.316 µM, first compound 10 µM): 61.2%
- viability, T/C [13]: 111%
- viability, T/C [14]: 97.7%
- viability, T/C [15]: 90.1%
- viability, T/C [16]: 102%
- viability, T/C (second compound 1 µM, first compound 3.16 µM): 99.2%
- viability, T/C (second compound 1 µM, first compound 10 µM): 49.8%
- viability, T/C [17]: 101%
- viability, T/C [18]: 94.5%
- viability, T/C [19]: 97.1%
- viability, T/C [20]: 96%
- viability, T/C (second compound 3.16 µM, first compound 3.16 µM): 86.8%
- viability, T/C (second compound 3.16 µM, first compound 10 µM): 43.6%
- viability, T/C [21]: 95.2%
- viability, T/C [22]: 98.9%
- viability, T/C [23]: 86.1%
- viability, T/C [24]: 90.1%
- viability, T/C (second compound 10 µM, first compound 3.16 µM): 95.3%
- viability, T/C (second compound 10 µM, first compound 10 µM): 38.1%

- IC50 (second compound 0.00949 µM): 0.719 µM
- IC50 (second compound 0.03 µM): 0.741 µM
- IC50 (second compound 0.0949 µM): 0.69 µM
- IC50 (second compound 0.3 µM): 0.718 µM
- IC50 (second compound 0.949 µM): 0.614 µM
- IC50 (second compound 3 µM): 0.543 µM
SMILES: COc1c(OCCCN2CCOCC2)ccc2c3n(c(=NC(=O)c4cnc(N)nc4)nc12)CCN3 + CCN1C(C(=O)NC23CCC(C(=O)O)(CC2)CC3)C(c2cccc(Cl)c2F)C2(C(=O)Nc3cc(Cl)ccc32)C12CCCCC2
- viability, T/C (second compound 0.00949 µM, first compound 0.00316 µM): 96.8%
- viability, T/C (second compound 0.00949 µM, first compound 0.01 µM): 93.6%
- viability, T/C (second compound 0.00949 µM, first compound 0.0316 µM): 101%
- viability, T/C (second compound 0.00949 µM, first compound 0.1 µM): 72.7%
- viability, T/C (second compound 0.00949 µM, first compound 0.316 µM): 66.4%
- viability, T/C (second compound 0.00949 µM, first compound 1 µM): 44%
- viability, T/C (second compound 0.03 µM, first compound 0.00316 µM): 133%
- viability, T/C (second compound 0.03 µM, first compound 0.01 µM): 96%
- viability, T/C (second compound 0.03 µM, first compound 0.0316 µM): 94.2%
- viability, T/C (second compound 0.03 µM, first compound 0.1 µM): 70.6%
- viability, T/C (second compound 0.03 µM, first compound 0.316 µM): 59.8%
- viability, T/C (second compound 0.03 µM, first compound 1 µM): 45.8%
- viability, T/C (second compound 0.0949 µM, first compound 0.00316 µM): 99.3%
- viability, T/C (second compound 0.0949 µM, first compound 0.01 µM): 96.2%
- viability, T/C (second compound 0.0949 µM, first compound 0.0316 µM): 90.8%
- viability, T/C (second compound 0.0949 µM, first compound 0.1 µM): 77.5%
- viability, T/C (second compound 0.0949 µM, first compound 0.316 µM): 67.3%
- viability, T/C (second compound 0.0949 µM, first compound 1 µM): 42.1%
- viability, T/C (second compound 0.3 µM, first compound 0.00316 µM): 96.8%
- viability, T/C (second compound 0.3 µM, first compound 0.01 µM): 96%
- viability, T/C (second compound 0.3 µM, first compound 0.0316 µM): 93%
- viability, T/C (second compound 0.3 µM, first compound 0.1 µM): 70.6%
- viability, T/C (second compound 0.3 µM, first compound 0.316 µM): 65.9%
- viability, T/C (second compound 0.3 µM, first compound 1 µM): 44.1%
- viability, T/C (second compound 0.949 µM, first compound 0.00316 µM): 108%
- viability, T/C (second compound 0.949 µM, first compound 0.01 µM): 105%
- viability, T/C (second compound 0.949 µM, first compound 0.0316 µM): 92.4%
- viability, T/C (second compound 0.949 µM, first compound 0.1 µM): 75.4%
- viability, T/C (second compound 0.949 µM, first compound 0.316 µM): 58.7%
- viability, T/C (second compound 0.949 µM, first compound 1 µM): 43.9%
- viability, T/C (second compound 3 µM, first compound 0.00316 µM): 106%
- viability, T/C (second compound 3 µM, first compound 0.01 µM): 103%
- viability, T/C (second compound 3 µM, first compound 0.0316 µM): 81.2%
- viability, T/C (second compound 3 µM, first compound 0.1 µM): 80.1%
- viability, T/C (second compound 3 µM, first compound 0.316 µM): 64.7%
- viability, T/C (second compound 3 µM, first compound 1 µM): 35.7%

Source: PubChem BioAssay AID1963441 (Molecular Pharmacology Branch, DTP, NCI, 2024)
